Experimental data from patent EP0048954A2, “Beta-lactam compounds, process for the preparation thereof and intermediate products for the preparation thereof” (SAGAMI CHEMICAL RESEARCH CENTER, priority 1980, dated 1982).
Converted amounts (≈) assume the structure as drawn.

Tests used:
Test in all cases: Antibacterial activity, minimum inhibition concentration (method of The Chemotherapy Association, Japan)
Type in all cases: cell-based
[1] = system: Proteus rettgeri NIH-96; details: Providencia rettgeri, NIH96, strain I: Proteus rettgeri NIH-96; read-out: minimum inhibition concentration
Source text: (§1) The abbreviations A to P will be used in the following Tables 2 to 8.
(§2) Test results are shown in terms of the minimum inhibition concentration (µg/mℓ.) in the following Tables 2 to 8.

[2] = system: Proteus vulgaris OX-19; details: Proteus vulgaris, OX19, strain H: Proteus vulgaris OX-19; read-out: minimum inhibition concentration
Source text: as §1, §2

[3] = system: Pseudomonas aeruginosa NCTC-10490; details: Pseudomonas aeruginosa, NCTC10490, strain M: Pseudomonas aeruginosa NCTC-10490; read-out: minimum inhibition concentration
Method: (§3) Antibacterial activities of the compounds according to this invention, which had been prepared in the preceding Examples, were measured according to the method prescribed by The Committee of Amendment of "The method for measurement of the minimum inhibition concentration", The Chemotherapy Association, Japan (See Chemotherapy, Vol. 22, No. 6, pp. 1126 - 1128 (1974) and Vol. 29, No. 1, pp. 76 - 79 (1981)).
as §1, §2

[4] = system: Enterobactor cloacae NCTC-9394; details: strain N: Enterobactor cloacae NCTC-9394; read-out: minimum inhibition concentration
Method: as §3, §1, §2

[5] = system: Proteus mirabillis B-30-2 IFO-3849; details: strain G: Proteus mirabillis B-30-2 IFO-3849; read-out: minimum inhibition concentration
Method: as §3, §1, §2

[6] = system: Bacillus subtilis ATCC 6633; details: for MIC: Bacillus subtilis, ATCC6633, strain B: Bacillus subtilis ATCC 6633, read-out: minimum inhibition concentration
Method: as §3, §1, §2

[7] = system: Escherichia coli NIHJ; details: Escherichia coli, strain K: Escherichia coli NIHJ; read-out: minimum inhibition concentration
Method: as §3, §1, §2

[8] = system: Citrobactor freundii NIH-10018 -68; details: strain O: Citrobactor freundii NIH-10018 -68; read-out: minimum inhibition concentration
Method: as §3, §1, §2

[9] = system: Serratia marcescens IFO-3736; details: Serratia marcescens, IFO3736, strain F: Serratia marcescens IFO-3736; read-out: minimum inhibition concentration
Method: as §3, §1, §2

[10] = system: Staphylococcus aureus 6538-P; details: strain A: Staphylococcus aureus 6538-P; read-out: minimum inhibition concentration
Method: as §3, §1, §2

[11] = system: Klebsiella pneumoniae; details: Klebsiella pneumoniae, strain C: Klebsiella pneumoniae; read-out: minimum inhibition concentration
Method: as §3, §1, §2

[12] = system: Proteus morgani Kono; details: strain J: Proteus morgani Kono; read-out: minimum inhibition concentration
Method: as §3, §1, §2

[13] = system: Serratia marcescens 1023; details: Serratia marcescens, 1023, strain E: Serratia marcescens 1023; read-out: minimum inhibition concentration
Method: as §3, §1, §2

[14] = system: Salmonella typhimurium 3173; details: Salmonella enterica, TYPHIMURIUM, strain D: Salmonella typhimurium 3173; read-out: minimum inhibition concentration
Method: as §3, §1, §2

[15] = system: Escherichia coli NIHJC-2; details: Escherichia coli, NIHJC2, strain L: Escherichia coli NIHJC-2; read-out: minimum inhibition concentration
Method: as §3, §1, §2

CC(=O)OCC1=C(C(=O)O)N2C(=O)C(NC(=O)C(=C(Cl)Cl)c3ccc(C)cc3)[C@H]2SC1 (stereo partly drawn) [Compound 28, 7-[2-dichloromethylene-2-(4-methylphenyl)acetamido]-3-acetoxymethyl-3-cephem-4-carboxylic acid]
MIC [1]: 3.12 µg/mL (≈ 6.44 µM) | MIC [2]: 100 µg/mL (≈ 206 µM) | MIC [3]: 50 µg/mL (≈ 103 µM) | MIC [4]: > 100 µg/mL | MIC [5]: > 100 µg/mL | MIC [6]: 3.12 µg/mL (≈ 6.44 µM) | MIC [7]: > 100 µg/mL | MIC [8]: > 100 µg/mL | MIC [9]: > 100 µg/mL | MIC [10]: > 100 µg/mL | MIC [11]: > 100 µg/mL | MIC [12]: > 100 µg/mL | MIC [13]: 6.25 µg/mL (≈ 12.9 µM) | MIC [14]: > 100 µg/mL | MIC [15]: > 100 µg/mL

Cn1nnnc1SCC1=C(C(=O)O)N2C(=O)C(NC(=O)C(=C(Cl)Cl)c3csc(N)n3)C2SC1 (stereo not drawn) [6-(2), 7-[2-dichloromethylene-2-(2-aminothiazol-4-yl)-acetamido]-3-(l-methyl-lH-tetrazol-5-yl)thiomethyl-3-cephem-4-carboxylic acid]
MIC [1]: < 0.025 µg/mL | MIC [2]: 0.1 µg/mL (≈ 0.182 µM) | MIC [3]: 3.12 µg/mL (≈ 5.69 µM) | MIC [4]: 1.56 µg/mL (≈ 2.84 µM) | MIC [5]: 12.5 µg/mL (≈ 22.8 µM) | minimum inhibition concentration ([6]; strain B: Bacillus subtilis ATCC 6633): 6.25 µg/mL (≈ 11.4 µM) | MIC [7]: < 0.025 µg/mL | MIC [8]: 6.25 µg/mL (≈ 11.4 µM) | MIC [9]: 25 µg/mL (≈ 45.5 µM) | MIC [10]: 0.78 µg/mL (≈ 1.42 µM) | MIC [11]: 12.5 µg/mL (≈ 22.8 µM) | MIC [12]: 6.25 µg/mL (≈ 11.4 µM) | MIC [13]: 12.5 µg/mL (≈ 22.8 µM) | MIC [14]: 6.25 µg/mL (≈ 11.4 µM) | MIC [15]: 12.5 µg/mL (≈ 22.8 µM)

Nc1nc(C(=CCl)C(=O)NC2C(=O)N3C(C(=O)[O-])=C(C[n+]4ccccc4)CSC23)cs1 (stereo not drawn) [Compound 24, 7-[2-chloromethylene-2-(2-aminothiazol-4-yl)acetamido]-3-pyridiniummethyl-3-cephem-4-carboxylic acid betaine]
MIC [1]: 0.78 µg/mL (≈ 1.63 µM) | MIC [2]: 3.12 µg/mL (≈ 6.54 µM) | MIC [3]: > 100 µg/mL | MIC [4]: 12.5 µg/mL (≈ 26.2 µM) | MIC [5]: 12.5 µg/mL (≈ 26.2 µM) | MIC [6]: 25 µg/mL (≈ 52.3 µM) | MIC [7]: 1.56 µg/mL (≈ 3.26 µM) | MIC [8]: 25 µg/mL (≈ 52.3 µM) | MIC [9]: 50 µg/mL (≈ 105 µM) | MIC [10]: 6.25 µg/mL (≈ 13.1 µM) | MIC [11]: 25 µg/mL (≈ 52.3 µM) | MIC [12]: 25 µg/mL (≈ 52.3 µM) | MIC [13]: 25 µg/mL (≈ 52.3 µM) | MIC [14]: 25 µg/mL (≈ 52.3 µM) | MIC [15]: 25 µg/mL (≈ 52.3 µM)

Cn1nnnc1SCC1=C(C(=O)O)N2C(=O)C(NC(=O)C(=CCl)c3cccs3)C2SC1 (stereo not drawn) [Compound 34, 7-[2-chloromethylene-2-(2-thienyl)acetamido]-3-(l-methyl-lH-tetrazol-5-yl)thiomethyl-3-cephem-4-carboxylic acid]
MIC [1]: 0.05 µg/mL (≈ 0.1 µM) | MIC [2]: 12.5 µg/mL (≈ 25.1 µM) | MIC [3]: 100 µg/mL (≈ 200 µM) | MIC [4]: 12.5 µg/mL (≈ 25.1 µM) | MIC [5]: 100 µg/mL (≈ 200 µM) | MIC [6]: 0.78 µg/mL (≈ 1.56 µM) | MIC [7]: 1.56 µg/mL (≈ 3.13 µM) | MIC [8]: 100 µg/mL (≈ 200 µM) | MIC [9]: 100 µg/mL (≈ 200 µM) | MIC [10]: 25 µg/mL (≈ 50.1 µM) | MIC [11]: 100 µg/mL (≈ 200 µM) | MIC [12]: 100 µg/mL (≈ 200 µM) | MIC [13]: 1.56 µg/mL (≈ 3.13 µM) | MIC [14]: 12.5 µg/mL (≈ 25.1 µM) | MIC [15]: 25 µg/mL (≈ 50.1 µM)

CC(=O)OCC1=C(C(=O)O)N2C(=O)C(NC(=O)C(=C(Cl)Cl)c3ccc(NC(=O)OC(C)(C)C)cc3)C2SC1 (stereo not drawn) [4-(1), 7-[2-dichloromethylene-2-(4-tert-butoxycarbonyl-aminophenyl)acetamido]-3-acetoxymethyl-3-cephem-4-carboxylic acid]
MIC [1]: 6.25 µg/mL (≈ 10.7 µM) | MIC [2]: > 100 µg/mL | MIC [3]: 50 µg/mL (≈ 85.3 µM) | MIC [4]: > 100 µg/mL | MIC [5]: > 100 µg/mL | MIC [6]: 6.25 µg/mL (≈ 10.7 µM) | MIC [7]: 6.25 µg/mL (≈ 10.7 µM) | MIC [8]: > 100 µg/mL | MIC [9]: > 100 µg/mL | MIC [10]: 0.39 µg/mL (≈ 0.665 µM) | MIC [11]: > 100 µg/mL | MIC [12]: > 100 µg/mL | MIC [13]: 6.25 µg/mL (≈ 10.7 µM) | MIC [14]: > 100 µg/mL | MIC [15]: > 100 µg/mL

CC(=O)OCC1=C(C(=O)O)N2C(=O)C(NC(=O)C(=C(Cl)Cl)c3ccc(Cl)s3)[C@H]2SC1 (stereo partly drawn) [Compound 31, 7-[2-dichloromethylene-2-(5-chloro-2-thienyl)acetamido]-3-acetoxymethyl-3-cephem-4-carboxylic acid]
MIC [1]: 1.56 µg/mL (≈ 3.05 µM) | MIC [2]: 100 µg/mL (≈ 195 µM) | MIC [3]: 100 µg/mL (≈ 195 µM) | MIC [4]: > 100 µg/mL | MIC [5]: > 100 µg/mL | MIC [6]: 6.25 µg/mL (≈ 12.2 µM) | MIC [7]: 25 µg/mL (≈ 48.8 µM) | MIC [8]: > 100 µg/mL | MIC [9]: > 100 µg/mL | MIC [10]: 0.2 µg/mL (≈ 0.391 µM) | MIC [11]: > 100 µg/mL | MIC [12]: > 100 µg/mL | MIC [13]: 100 µg/mL (≈ 195 µM) | MIC [14]: > 100 µg/mL | MIC [15]: > 100 µg/mL

Cn1nnnc1SCC1=C(C(=O)O)N2C(=O)C(NC(=O)C(=C(Cl)Cl)c3ccsc3)C2SC1 (stereo not drawn) [Compound 35, 7-[2-dichloromethylene-2-(3-thienyl)acetamido]-3-(l-methyl-lH-tetrazol-5-yl)thiomethyl-3-cephem-4-carboxylic acid]
MIC [1]: 0.1 µg/mL (≈ 0.187 µM) | MIC [2]: 25 µg/mL (≈ 46.9 µM) | MIC [3]: 12.5 µg/mL (≈ 23.4 µM) | MIC [4]: 12.5 µg/mL (≈ 23.4 µM) | MIC [5]: 100 µg/mL (≈ 187 µM) | MIC [6]: 3.12 µg/mL (≈ 5.86 µM) | MIC [7]: 3.12 µg/mL (≈ 5.86 µM) | MIC [8]: 100 µg/mL (≈ 187 µM) | MIC [9]: 100 µg/mL (≈ 187 µM) | MIC [10]: 0.2 µg/mL (≈ 0.375 µM) | MIC [11]: 50 µg/mL (≈ 93.7 µM) | MIC [12]: > 100 µg/mL | MIC [13]: 3.12 µg/mL (≈ 5.86 µM) | MIC [14]: 25 µg/mL (≈ 46.9 µM) | MIC [15]: 50 µg/mL (≈ 93.7 µM)

CC(=O)OCC1=C(C(=O)O)N2C(=O)C(NC(=O)C(=C(Cl)Cl)c3cccc(O)c3)[C@H]2SC1 (stereo partly drawn) [Compound 3, 7-[2-dichloromethylene-2-(3-hydroxyphenyl)acetamido]-3-acetoxymethyl-3-cephem-4-carboxylic acid]
MIC [1]: 0.1 µg/mL (≈ 0.205 µM) | MIC [2]: 0.76 µg/mL (≈ 1.56 µM) | MIC [3]: 6.25 µg/mL (≈ 12.8 µM) | MIC [4]: 12.5 µg/mL (≈ 25.7 µM) | MIC [5]: 50 µg/mL (≈ 103 µM) | MIC [6]: 3.12 µg/mL (≈ 6.41 µM) | MIC [7]: 0.2 µg/mL (≈ 0.41 µM) | MIC [8]: 25 µg/mL (≈ 51.3 µM) | MIC [9]: 50 µg/mL (≈ 103 µM) | MIC [10]: 0.39 µg/mL (≈ 0.8 µM) | MIC [11]: 50 µg/mL (≈ 103 µM) | MIC [12]: 100 µg/mL (≈ 205 µM) | MIC [13]: 0.25 µg/mL (≈ 0.513 µM) | MIC [14]: 12.5 µg/mL (≈ 25.7 µM) | MIC [15]: 50 µg/mL (≈ 103 µM)

COc1ccc(C(C(=O)NC2C(=O)N3C(C(=O)O)=C(COC(C)=O)CS[C@H]23)=C(Cl)Cl)cc1 (stereo partly drawn) [Compound 27, 7-[2-dichloromethylene-2-(4-methoxyphenyl)acetamido]-3-acetoxymethyl-3-cephem-4-carboxylic acid]
MIC [1]: 3.12 µg/mL (≈ 6.23 µM) | MIC [2]: > 100 µg/mL | MIC [3]: 100 µg/mL (≈ 199 µM) | MIC [4]: > 100 µg/mL | MIC [5]: > 100 µg/mL | MIC [6]: 3.12 µg/mL (≈ 6.23 µM) | MIC [7]: 100 µg/mL (≈ 199 µM) | MIC [8]: > 100 µg/mL | MIC [9]: > 100 µg/mL | MIC [10]: > 100 µg/mL | MIC [11]: > 100 µg/mL | MIC [12]: > 100 µg/mL | MIC [13]: 6.25 µg/mL (≈ 12.5 µM) | MIC [14]: > 100 µg/mL | MIC [15]: > 100 µg/mL
